We go through 30 molecules from US9987276B2 (Celgene CAR LLC, priority 2008, dated 2018).

pIC50: −log10 of the molar value. Where two headings read alike, the source gives them in different places.

Assay [1] deals with EGFR-WT (Homo sapiens (Human), UniProt P00533). Kind of assay: Omnia assay for potency assessment against EGFR (WT).
Assay [2] deals with BTK (Homo sapiens (Human), UniProt Q06187). Put plainly: Omnia assay for potency assessment against BTK. The assay is classed as biochemical. The following applies: [BTK]=5 nM, Omnia assay; read-out: BTK Inhibition (IC50). As for the experimental part:
The modified BTK-optimized reagent conditions for the above protocol are:
[BTK]=5 nM, [ATP]=[…], [Y5-Sox]=[…] (ATP KMapp˜[…]).

[3] abbreviates: read-out: EGFR (wild type inhibition), EGFR wild type.

EGFR-WT, sequence (P00533 668-1210): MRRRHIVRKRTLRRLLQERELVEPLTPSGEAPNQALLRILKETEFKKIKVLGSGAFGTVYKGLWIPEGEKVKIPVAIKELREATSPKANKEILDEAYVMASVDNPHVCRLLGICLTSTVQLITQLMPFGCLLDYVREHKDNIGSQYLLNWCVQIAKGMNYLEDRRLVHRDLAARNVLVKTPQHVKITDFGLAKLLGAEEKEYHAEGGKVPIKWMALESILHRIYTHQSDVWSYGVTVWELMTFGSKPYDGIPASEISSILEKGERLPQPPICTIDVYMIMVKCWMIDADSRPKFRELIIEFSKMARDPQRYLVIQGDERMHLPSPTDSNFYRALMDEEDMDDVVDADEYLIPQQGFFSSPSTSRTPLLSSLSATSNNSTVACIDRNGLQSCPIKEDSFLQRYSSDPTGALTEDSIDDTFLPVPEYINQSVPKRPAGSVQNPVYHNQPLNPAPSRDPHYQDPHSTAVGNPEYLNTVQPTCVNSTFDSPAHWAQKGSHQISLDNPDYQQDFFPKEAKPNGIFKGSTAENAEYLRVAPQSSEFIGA
BTK, sequence (Q06187 whole entry): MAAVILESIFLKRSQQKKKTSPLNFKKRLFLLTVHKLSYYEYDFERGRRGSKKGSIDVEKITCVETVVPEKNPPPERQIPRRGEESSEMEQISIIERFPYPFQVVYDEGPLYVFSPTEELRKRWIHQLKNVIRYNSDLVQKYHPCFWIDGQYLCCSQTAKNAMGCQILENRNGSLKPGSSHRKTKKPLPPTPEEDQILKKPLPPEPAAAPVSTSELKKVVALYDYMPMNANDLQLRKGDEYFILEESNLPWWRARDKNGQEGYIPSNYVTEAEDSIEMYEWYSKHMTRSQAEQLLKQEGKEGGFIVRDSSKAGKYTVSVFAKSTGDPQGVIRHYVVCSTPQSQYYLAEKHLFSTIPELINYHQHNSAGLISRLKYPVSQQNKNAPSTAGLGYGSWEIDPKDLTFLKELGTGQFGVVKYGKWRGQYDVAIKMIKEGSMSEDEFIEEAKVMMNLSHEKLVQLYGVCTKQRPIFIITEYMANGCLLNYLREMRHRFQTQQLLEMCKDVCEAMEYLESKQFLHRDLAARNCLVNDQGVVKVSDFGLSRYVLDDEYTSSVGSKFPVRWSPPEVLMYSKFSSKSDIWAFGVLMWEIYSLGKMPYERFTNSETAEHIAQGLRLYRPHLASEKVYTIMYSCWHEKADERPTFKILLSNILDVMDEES

For the molecule `C=CC(=O)Nc1cccc(N(C)c2nc(Nc3ccccc3)ncc2C)c1` [Compound I-34, N-(3-(methyl(5-methyl-2-(phenylamino)pyrimidin-4-yl)amino)phenyl)acrylamide], the results for the pIC50 in assay [1] and in assay [2] were 6.00 to 7.00 and 7.00 to 8.00, respectively.

For the molecule `C/C=C/C(=O)OCc1ccc(Nc2nc(Nc3ccccc3)ncc2C)cc1` [Compound I-60, (E)-4-(5-methyl-2-(phenylamino)pyrimidin-4-ylamino) benzyl but-2-enoate], the pIC50 was 5.00 to 6.00 in assay [1] (setting [3]) and 6.00 to 7.00 in assay [2].

For the molecule `C=CC(=O)Nc1cccc(Nc2nc(Nc3ccc(Cl)c(OC)c3)ncc2F)c1` [Compound I-74, N-(3-(5-fluoro-2-(4-chloro-3-methoxyphenylamino)pyrimidin-4-ylamino)phenyl)acrylamide], the figures for the pIC50 in assay [1] and in assay [2] were 6.00 to 7.00 and above 8.00, respectively.

As to `C=CC(=O)Nc1cccc(Oc2nc(Nc3cccc(OCC4CCCN(C)C4)c3)ncc2F)c1` (stereo not drawn) [Compound I-81, N-(3-(5-fluoro-2-(3-((1-methylpiperidin-3-yl)methoxy)phenylamino)pyrimidin-4-yloxy)phenyl)acrylamide], the pIC50 in assay [1] (setting [3]) and in assay [2] was above 8.00 each time.

On to `C=CC(=O)Nc1cccc(Nc2nc(Nc3cccc(OCC4CCN(C)CC4)c3)ncc2F)c1` [Compound I-82, N-(3-(5-fluoro-2-(3-((1-methylpiperidin-4-yl)methoxy)phenylamino)pyrimidin-4-ylamino)phenyl)-acrylamide], for which the pIC50 in assay [1] (setting [3]) and in assay [2] was above 8.00 throughout.

For the molecule `C=CC(=O)Nc1cccc(Oc2nc(Nc3cccc(N4CCN(CCO)CC4)c3)ncc2F)c1` [Compound I-84, N-(3-(5-fluoro-2-(3-(4-(2-hydroxyethyl)piperazin-1-yl)phenylamino)pyrimidin-4-yloxy)phenyl)acrylamide], the pIC50 in assay [1] (setting [3]) and in assay [2] was above 8.00 throughout.

Turning to `C=CC(=O)Nc1cccc(Nc2nc(Nc3ccc(OCCN4CCCC4=O)cc3)ncc2F)c1` [Compound I-92, N-(3-(5-fluoro-2-(4-(2-(2-oxopyrrolidin-1-yl)ethoxy)phenylamino)pyrimidin-4-ylamino)phenyl)acrylamide], the pIC50 in assay [1] was 7.00 to 8.00; in assay [2] it was above 8.00.

In the case of `C=CC(=O)Nc1cccc(Nc2nc(Nc3ccc(OC(C)(C)CO)cc3)ncc2F)c1` [Compound I-93, N-(3-(5-fluoro-2-(4-(1-hydroxy-2-methylpropan-2-yloxy)phenylamino)pyrimidin-4-ylamino)phenyl)acrylamide], the pIC50 in assay [1] is 7.00 to 8.00; in assay [2], above 8.00.

Consider `Cc1cccc(Nc2nc(Nc3cccc(NC(=O)/C=C/CN4CC[C@H](O)C4)c3)ncc2F)c1` [Compound I-99, (S,E)-N-(3-(5-fluoro-4-(m-tolylamino)pyrimidin-2-ylamino)phenyl)-4-(3-hydroxypyrrolidin-1-yl)but-2-enamide], for which the pIC50 in assay [1] (setting [3]) and in assay [2] was above 8.00 throughout.

In the case of `Cc1cccc(Nc2nc(Nc3cccc(NC(=O)/C=C/CN4C[C@@H]5C[C@H]4CN5)c3)ncc2F)c1` [Compound I-101, (E)-4-((1S,4S)-2,5-diazabicyclo[2.2.1]heptan-2-yl)-N-(3-(5-fluoro-4-(m-tolylamino)pyrimidin-2-ylamino)phenyl)but-2-enamide], the pIC50 in assay [1] and in assay [2] was 7.00 to 8.00 in each case.

Turning to `Cc1cccc(Nc2nc(Nc3cccc(NC(=O)/C=C/CN4CC[C@@H](O)C4)c3)ncc2F)c1` [Compound I-104, (R,E)-N-(3-(5-fluoro-4-(m-tolylamino)pyrimidin-2-ylamino)phenyl)-4-(3-hydroxypyrrolidin-1-yl)but-2-enamide], the pIC50 in assay [1] (setting [3]) and in assay [2] was above 8.00 throughout.

In the case of `C=CC(=O)Nc1cccc(Nc2nc(Nc3ccc(OCCOC)cc3)ncc2C#N)c1` [Compound I-109, N-(3-(5-cyano-2-(4-(2-methoxyethoxy)phenylamino)pyrimidin-4-ylamino)phenyl)acrylamide], the pIC50 in assay [1] (setting [3]) and in assay [2] was above 8.00 in each case.

In the case of `C=CC(=O)N(C)Cc1ccc(Oc2nc(Nc3cccc(OCCCN4CCCC4=O)c3)ncc2F)cc1` [Compound I-111, N-(4-(5-fluoro-2-(3-(3-(2-oxopyrrolidin-1-yl)propoxy)phenylamino)pyrimidin-4-yloxy)benzyl)-N-methylacrylamide], the pIC50 in assay [1] is 6.00 to 7.00; in assay [2] it was above 8.00.

Regarding `C=CC(=O)Nc1cccc(Nc2nc(Nc3ccc4c(c3)N(C(C)=O)CCO4)ncc2F)c1` [Compound I-112, N-(3-(2-(4-acetyl-2,3-dihydrobenzo[1,4]oxazin-6-yl)amino-5-fluoropyrimidin-4-ylamino)phenyl)acrylamide], the pIC50 in assay [1] is 7.00 to 8.00; in assay [2] it was above 8.00.

As to `C=CC(=O)N(C)Cc1ccc(Nc2nc(Nc3cccc(OC)c3)ncc2F)cc1` [Compound I-113, N-(4-(5-fluoro-2-(3-methoxyphenylamino)pyrimidin-4-ylamino)benzyl)-N-methylacrylamide], the pIC50 in assay [1] is 6.00 to 7.00; in assay [2], above 8.00.

`C=CC(=O)N(C)Cc1ccc(Oc2nc(Nc3ccc(OC)nc3)ncc2F)cc1` [Compound I-117, N-(4-(5-fluoro-2-(6-methoxypyridin-3-ylamino)pyrimidin-4-yloxy)benzyl)-N-methylacrylamide]: the pIC50 was 5.00 to 6.00 in assay [1] (setting [3]) and above 8.00 in assay [2].

`Cc1cccc(Nc2nc(Nc3cccc(NC(=O)/C=C/CN4C[C@@H](C)N[C@@H](C)C4)c3)ncc2F)c1` [Compound I-119, (E)-4-((3R,5S)-3,5-dimethylpiperazin-1-yl)-N-(3-(5-fluoro-4-(m-tolylamino)pyrimidin-2-ylamino)phenyl)but-2-enamide]: the pIC50 in assay [1] is 6.00 to 7.00; in assay [2], 7.00 to 8.00.

Turning to `COCCN(C)C/C=C/C(=O)Nc1cccc(Nc2ncc(F)c(Nc3cccc(C)c3)n2)c1` [Compound I-120, (E)-N-(3-(5-fluoro-4-(m-tolylamino)pyrimidin-2-ylamino)phenyl)-4-((2-methoxyethyl)(methyl)amino)but-2-enamide], the pIC50 in assay [1] (setting [3]) and in assay [2] was above 8.00 throughout.

With `C=CC(=O)N1CCOc2ccc(Nc3ncc(F)c(Nc4ccc5c(c4)CC(=O)N5)n3)cc21` [Compound I-130, 5-(2-(4-acryloyl-3,4-dihydro-2H-benzo[b][1,4]oxazin-6-ylamino)-5-fluoropyrimidin-4-ylamino)indolin-2-one], the pIC50 in assay [1] is 7.00 to 8.00; in assay [2], above 8.00.

As to `C=CC(=O)N1Cc2ccc(Nc3nc(Nc4cccc(OC)c4)ncc3C(F)(F)F)cc2C1` [Compound I-132, 1-(5-(5-trifluoromethyl-2-(3-methoxyphenylamino)pyrimidin-4-yl)amino-1,3-dihydroisoindol-2-yl)2-propen-1-one], the figures for the pIC50 in assay [1] and in assay [2] were 7.00 to 8.00 and above 8.00, respectively.

On to `C=CC(=O)N(C)Cc1ccc(Oc2nc(Nc3cccc(OCCCS(C)(=O)=O)c3)ncc2F)cc1` [Compound I-136, N-(4-(5-fluoro-2-(3-(3-(methylsulfonyl)propoxy)phenylamino)pyrimidin-4-yloxy)benzyl)-N-methylacrylamide], for which the results for the pIC50 in assay [1] and in assay [2] were 6.00 to 7.00 and above 8.00, respectively.

On to `C=CC(=O)N1CCC[C@@H](Sc2nc(Nc3cccc(OC)c3)ncc2F)C1` [Compound I-137, (R)-1-(3-(5-fluoro-2-(3-methoxyphenylamino)pyrimidin-4-ylthio)piperidin-1-yl)prop-2-en-1-one], for which the pIC50 in assay [1] (setting [3]) was below 5.00; in assay [2], 6.00 to 7.00.

As for `C=CC(=O)N1CCOc2ccc(Nc3nc(Nc4ccc(OCCOC)cc4)ncc3F)cc21` [Compound I-141, 1-(6-(5-fluoro-2-(4-(2-methoxyethoxy)phenylamino)pyrimidin-4-ylamino)-2H-benzo[b][1,4]oxazin-4(3H)-yl)prop-2-en-1-one], the pIC50 in assay [1] is 7.00 to 8.00; in assay [2] it was above 8.00.

On to `C=CC(=O)Nc1cccc(Nc2nc(Nc3cccc(OCCCN4CCCC4=O)c3)ncc2F)c1` [Compound I-144, 4-(3-acrylamidophenylamino)-5-fluoro-2-(3-(3-(2-oxopyrrolidin-1-yl)propoxy)phenylamino)-pyrimidine], for which the pIC50 in assay [1] (setting [3]) and in assay [2] was above 8.00 throughout.

Turning to `C=CC(=O)Nc1cccc(N(C(=O)C=C)c2nc(Nc3ccc(OC)nc3)ncc2C#N)c1` [Compound I-171, N-(3-acrylamidophenyl)-N-(5-cyano-2-(6-methoxypyridin-3-ylamino)pyrimidin-4-yl)acrylamide], the results for the pIC50 in assay [1] and in assay [2] were 7.00 to 8.00 and above 8.00, respectively.

On to `C=CC(=O)N1CCC[C@H](Oc2nc(Nc3cccc(OC)c3)ncc2F)C1` [Compound I-179, (S)-1-(3-(5-fluoro-2-(3-methoxyphenylamino)pyrimidin-4-yloxy)piperidin-1-yl)prop-2-en-1-one], for which the pIC50 in assay [1] was below 5.00; in assay [2] it was 6.00 to 7.00.

For `C=CC(=O)Nc1cccc(Nc2nc(Nc3ccc4c(c3)CC(=O)N4)ncc2F)c1` [Compound I-181, N-(3-(5-fluoro-2-(2-oxoindolin-5-ylamino)pyrimidin-4-ylamino)phenyl)acrylamide], the pIC50 in assay [1] (setting [3]) and in assay [2] was above 8.00 each time.

Turning to `C=CC(=O)N1CC(Nc2nc(Nc3ccc(OC)nc3)ncc2C(C)=O)C1` [Compound I-187, 1-{3-[5-Acetyl-2-(6-methoxy-pyridin-3-ylamino)-pyrimidin-4-ylamino]-azetidin-1-yl}-propenone], the pIC50 in assay [1] is 6.00 to 7.00; in assay [2], 7.00 to 8.00.

Regarding `C=CC(=O)N1CCCC(Oc2nc(Nc3ccc(OC)nc3)ncc2F)C1` (stereo not drawn) [Compound I-191], the pIC50 in assay [1] (setting [3]) is 5.00 to 6.00; in assay [2], above 8.00.

On to `C=CC(=O)N1CCC[C@H](Oc2nc(Nc3ccc(OC)nc3)ncc2F)C1` [Compound I-193, (S)-1-(3-(5-fluoro-2-(6-methoxypyridin-3-ylamino)pyrimidin-4-yloxy)piperidin-1-yl)prop-2-en-1-one], for which the pIC50 in assay [1] (setting [3]) was 5.00 to 6.00; in assay [2] it was 6.00 to 7.00.
